For orientation: inhibition means how much of the control response was suppressed. The EC50 is the concentration that produces a half-maximal response. Low readings indicate an effect from little substance, high ones a need for much substance.

SMILES strings stand for the structures.

Format in all cases: biochemical
For experiment [1], the target named is T1, Mdn1 (Midasin) (Schizosaccharomyces pombe, UniProt O94248).
T1 construct: recombinant full-length Mdn1 (hexahistidine-tagged, insect cells)
Put plainly: ATP hydrolysis by purified enzyme (radioactive and NADH-coupled ATPase assays).

The target in experiment [2] is T1, Mdn1 (Midasin). Nature of the experiment: NADH-coupled and radioactive ATPase assays.
Experiment [3] concerns the target T1, Mdn1 (Midasin). Put plainly: NADH-coupled steady-state ATPase assay, dose-response (saturates at […] inhibition).

T1 sequence (O94248 whole entry): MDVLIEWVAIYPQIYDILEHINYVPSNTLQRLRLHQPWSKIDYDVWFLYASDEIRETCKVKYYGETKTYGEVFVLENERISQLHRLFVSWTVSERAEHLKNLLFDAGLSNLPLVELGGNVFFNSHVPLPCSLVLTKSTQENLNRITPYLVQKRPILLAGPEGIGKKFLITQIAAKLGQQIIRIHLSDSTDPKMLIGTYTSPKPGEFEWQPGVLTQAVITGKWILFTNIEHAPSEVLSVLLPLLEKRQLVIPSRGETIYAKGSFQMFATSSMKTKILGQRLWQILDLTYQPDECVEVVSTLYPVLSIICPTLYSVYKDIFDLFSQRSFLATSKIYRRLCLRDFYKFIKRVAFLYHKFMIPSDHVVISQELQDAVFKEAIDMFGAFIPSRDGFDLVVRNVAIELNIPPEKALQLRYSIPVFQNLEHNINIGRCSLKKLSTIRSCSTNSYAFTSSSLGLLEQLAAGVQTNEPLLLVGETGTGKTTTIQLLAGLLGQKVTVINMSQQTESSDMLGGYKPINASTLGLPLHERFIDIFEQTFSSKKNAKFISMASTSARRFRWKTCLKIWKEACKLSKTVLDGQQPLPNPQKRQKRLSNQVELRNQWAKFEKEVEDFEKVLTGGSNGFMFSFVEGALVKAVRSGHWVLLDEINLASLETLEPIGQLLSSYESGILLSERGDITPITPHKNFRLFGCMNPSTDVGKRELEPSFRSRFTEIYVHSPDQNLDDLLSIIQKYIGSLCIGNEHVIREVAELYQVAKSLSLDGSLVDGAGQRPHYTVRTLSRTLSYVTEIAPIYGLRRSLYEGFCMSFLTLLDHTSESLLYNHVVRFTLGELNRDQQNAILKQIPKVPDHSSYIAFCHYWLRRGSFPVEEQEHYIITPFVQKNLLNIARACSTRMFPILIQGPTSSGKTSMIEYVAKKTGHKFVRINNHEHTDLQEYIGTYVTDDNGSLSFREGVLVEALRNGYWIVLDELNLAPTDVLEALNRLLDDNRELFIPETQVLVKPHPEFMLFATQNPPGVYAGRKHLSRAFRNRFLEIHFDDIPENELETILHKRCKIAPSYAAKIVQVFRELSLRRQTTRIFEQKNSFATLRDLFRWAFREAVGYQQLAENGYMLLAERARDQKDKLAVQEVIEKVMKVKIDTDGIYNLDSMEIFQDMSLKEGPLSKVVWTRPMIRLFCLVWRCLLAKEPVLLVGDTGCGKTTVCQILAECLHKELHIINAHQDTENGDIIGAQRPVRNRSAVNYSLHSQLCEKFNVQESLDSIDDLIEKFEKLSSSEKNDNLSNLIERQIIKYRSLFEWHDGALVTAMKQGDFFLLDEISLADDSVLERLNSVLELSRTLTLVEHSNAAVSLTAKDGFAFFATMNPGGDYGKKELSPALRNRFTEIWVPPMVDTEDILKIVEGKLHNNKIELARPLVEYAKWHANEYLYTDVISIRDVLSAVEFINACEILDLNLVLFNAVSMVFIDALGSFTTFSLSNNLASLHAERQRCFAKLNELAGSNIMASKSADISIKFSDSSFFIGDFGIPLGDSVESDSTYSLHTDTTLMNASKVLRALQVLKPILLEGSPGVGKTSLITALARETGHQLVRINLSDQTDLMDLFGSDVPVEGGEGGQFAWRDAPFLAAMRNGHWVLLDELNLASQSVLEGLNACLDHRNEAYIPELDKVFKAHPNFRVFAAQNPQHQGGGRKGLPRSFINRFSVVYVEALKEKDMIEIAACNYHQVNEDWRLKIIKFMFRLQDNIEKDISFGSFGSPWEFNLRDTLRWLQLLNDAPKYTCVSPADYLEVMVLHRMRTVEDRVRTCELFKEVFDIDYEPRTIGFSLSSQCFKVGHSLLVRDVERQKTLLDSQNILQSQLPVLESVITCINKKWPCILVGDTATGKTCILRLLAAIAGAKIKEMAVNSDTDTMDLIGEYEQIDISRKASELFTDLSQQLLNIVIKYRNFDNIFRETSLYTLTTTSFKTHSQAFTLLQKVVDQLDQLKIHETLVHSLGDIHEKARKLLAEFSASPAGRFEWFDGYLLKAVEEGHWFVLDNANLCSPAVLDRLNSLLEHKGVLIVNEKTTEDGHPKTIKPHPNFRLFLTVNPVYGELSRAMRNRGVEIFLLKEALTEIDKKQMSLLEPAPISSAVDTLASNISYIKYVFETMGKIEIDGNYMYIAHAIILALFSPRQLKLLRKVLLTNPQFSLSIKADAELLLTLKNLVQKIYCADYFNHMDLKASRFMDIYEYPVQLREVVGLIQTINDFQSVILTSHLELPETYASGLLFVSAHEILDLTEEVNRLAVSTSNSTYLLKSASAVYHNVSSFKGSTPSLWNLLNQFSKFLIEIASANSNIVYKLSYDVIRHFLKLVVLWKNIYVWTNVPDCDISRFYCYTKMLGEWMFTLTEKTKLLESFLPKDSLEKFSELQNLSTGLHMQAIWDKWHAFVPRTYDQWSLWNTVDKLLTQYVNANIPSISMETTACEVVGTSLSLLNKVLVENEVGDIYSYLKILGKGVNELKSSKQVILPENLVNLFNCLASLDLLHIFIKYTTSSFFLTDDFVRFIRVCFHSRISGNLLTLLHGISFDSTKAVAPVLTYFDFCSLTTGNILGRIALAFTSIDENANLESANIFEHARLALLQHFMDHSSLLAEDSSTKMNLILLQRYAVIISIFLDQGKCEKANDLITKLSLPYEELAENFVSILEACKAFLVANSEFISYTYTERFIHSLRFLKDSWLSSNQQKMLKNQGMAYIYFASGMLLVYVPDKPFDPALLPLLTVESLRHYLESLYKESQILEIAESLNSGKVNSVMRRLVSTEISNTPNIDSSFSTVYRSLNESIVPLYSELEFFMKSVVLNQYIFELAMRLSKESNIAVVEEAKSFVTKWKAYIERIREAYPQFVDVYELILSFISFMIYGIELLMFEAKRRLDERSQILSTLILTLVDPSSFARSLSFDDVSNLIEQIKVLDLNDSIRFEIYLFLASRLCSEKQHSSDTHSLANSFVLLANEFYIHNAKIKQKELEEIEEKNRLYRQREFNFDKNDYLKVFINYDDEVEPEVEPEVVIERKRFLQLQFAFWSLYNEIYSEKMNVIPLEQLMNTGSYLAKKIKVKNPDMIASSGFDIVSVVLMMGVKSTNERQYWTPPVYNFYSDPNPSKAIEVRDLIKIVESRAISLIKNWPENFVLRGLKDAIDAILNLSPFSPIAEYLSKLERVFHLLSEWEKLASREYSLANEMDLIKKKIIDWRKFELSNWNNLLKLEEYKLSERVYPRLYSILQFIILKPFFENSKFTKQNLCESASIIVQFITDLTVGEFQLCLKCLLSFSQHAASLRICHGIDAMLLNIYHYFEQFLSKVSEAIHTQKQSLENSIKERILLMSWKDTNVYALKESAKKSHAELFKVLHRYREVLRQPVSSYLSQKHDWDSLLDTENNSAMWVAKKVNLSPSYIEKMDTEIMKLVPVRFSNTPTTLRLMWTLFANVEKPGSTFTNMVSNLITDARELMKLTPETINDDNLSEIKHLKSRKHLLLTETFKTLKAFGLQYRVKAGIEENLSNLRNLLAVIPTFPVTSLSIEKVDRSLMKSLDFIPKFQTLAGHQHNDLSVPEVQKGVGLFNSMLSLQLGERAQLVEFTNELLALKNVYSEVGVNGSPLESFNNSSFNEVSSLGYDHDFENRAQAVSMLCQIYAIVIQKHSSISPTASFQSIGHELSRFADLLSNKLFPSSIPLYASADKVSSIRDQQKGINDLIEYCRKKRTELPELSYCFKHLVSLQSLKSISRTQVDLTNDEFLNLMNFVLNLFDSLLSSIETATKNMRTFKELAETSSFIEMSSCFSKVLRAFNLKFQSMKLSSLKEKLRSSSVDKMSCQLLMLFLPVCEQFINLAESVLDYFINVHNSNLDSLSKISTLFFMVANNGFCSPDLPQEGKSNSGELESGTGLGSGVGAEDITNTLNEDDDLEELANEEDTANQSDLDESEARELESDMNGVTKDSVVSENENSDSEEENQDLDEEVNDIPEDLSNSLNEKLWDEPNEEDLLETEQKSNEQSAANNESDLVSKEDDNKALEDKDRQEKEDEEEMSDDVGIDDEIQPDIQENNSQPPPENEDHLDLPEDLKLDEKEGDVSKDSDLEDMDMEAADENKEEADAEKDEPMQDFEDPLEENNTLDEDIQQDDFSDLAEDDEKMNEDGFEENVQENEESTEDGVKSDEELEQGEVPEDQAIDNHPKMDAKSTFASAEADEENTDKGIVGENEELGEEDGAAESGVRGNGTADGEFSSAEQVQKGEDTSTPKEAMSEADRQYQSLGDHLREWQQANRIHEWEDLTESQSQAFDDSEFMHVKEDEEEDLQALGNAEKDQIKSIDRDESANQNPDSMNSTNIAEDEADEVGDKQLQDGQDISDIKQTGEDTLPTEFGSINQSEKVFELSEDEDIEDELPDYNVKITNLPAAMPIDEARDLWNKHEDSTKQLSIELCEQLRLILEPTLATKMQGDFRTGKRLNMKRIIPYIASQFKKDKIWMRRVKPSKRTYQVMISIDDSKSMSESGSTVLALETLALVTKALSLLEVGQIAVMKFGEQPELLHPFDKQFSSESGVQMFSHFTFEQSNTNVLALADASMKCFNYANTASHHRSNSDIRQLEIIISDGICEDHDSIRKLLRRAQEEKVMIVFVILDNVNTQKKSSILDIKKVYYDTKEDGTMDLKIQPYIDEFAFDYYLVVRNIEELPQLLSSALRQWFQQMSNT

On to `Nc1ncnc2c1ncn2[C@@H]1O[C@H](COP(=O)(O)OP(=O)(O)OP(=O)(O)O)[C@@H](O)[C@H]1O` [ATP], for which the “ATP hydrolysis by purified enzyme (radioactive and NADH-coupled ATPase assays)” value on Mdn1 (Midasin) [1] is ~ 1.0 s^–1 (specific activity at 1 mM MgATP).

As to `C=C(C)CSc1nnc2c(n1)[nH]c1ccccc12` [compound 1, Rbin-1], the inhibition at 1 µM on Mdn1 (Midasin) [2] is approximately 40%.

`C=C(C)CSc1nnc2c(n1)[nH]c1cc(Br)ccc12` [compound 15, Rbin-2] came in with an EC50 on Mdn1 (Midasin) [3] of approximately 300 nM.

The values above are taken from PMC5116814, “Potent, Reversible, and Specific Chemical Inhibitors of Eukaryotic Ribosome Biogenesis” (Cell, 2016).
